Assay results published in paper PMC10794144, “A novel antibiotic class targeting the lipopolysaccharide transporter” (Nature, 2024).
Converted amounts (≈) assume the structure as drawn.

System: A. baumannii
Assay: microbe, parasite or virus in culture
How it was run: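 CLSI broth microdilution (M07/M100); inoculum from 0.5 McFarland suspension diluted in CAMHB; MIC = lowest concentration with no visible growth or where OD600 stops falling.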

CN1C(=O)[C@H](CCCCN)NC(=O)[C@H](CCCN)NCc2cccnc2Sc2c(Cl)ccc(Cl)c2CNC(=O)[C@@H]1Cc1c[nH]c2ccccc12 [RO7075573]
MIC 80% (ROB08704, Study ROC010): 0.5 µg/mL (≈ 0.676 µM) | MIC 100% (ROB08704, Study ROC010): 1 µg/mL (≈ 1.35 µM) | MIC 80% (ROB08704, Study ROC012): 0.25 µg/mL (≈ 0.338 µM) | MIC 100% (ROB08704, Study ROC012): 32 µg/mL (≈ 43.3 µM) | MIC 80% (ROB08705, Study LGC281440): ≤0.06 µg/mL | MIC 100% (ROB08705, Study LGC281440): ≤0.06 µg/mL | MIC 80% (ROB08705, Study LGC282160): 0.12 µg/mL (≈ 0.162 µM) | MIC 100% (ROB08705, Study LGC282160): 32 µg/mL (≈ 43.3 µM) | MIC 80% (ROB08705, Study LGC284879): ≤0.06 µg/mL | MIC 100% (ROB08705, Study LGC284879): 0.12 µg/mL (≈ 0.162 µM) | MIC 80% (ROB08705, Study LGC285582): ≤0.06 µg/mL | MIC 100% (ROB08705, Study LGC285582): ≤0.06 µg/mL | MIC 80% (ROB08705, Study LGC286210): ≤0.06 µg/mL | MIC 100% (ROB08705, Study LGC286210): ≤0.06 µg/mL | MIC 80% (ROB08705, Study LGC293598): ≤0.06 µg/mL | MIC 100% (ROB08705, Study LGC293598): ≤0.06 µg/mL | MIC 80% (ROB08705, Study LGC294355): ≤0.06 µg/mL | MIC 100% (ROB08705, Study LGC294355): 32 µg/mL (≈ 43.3 µM) | MIC 80% (ROB08705, Study LGC295147): 0.12 µg/mL (≈ 0.162 µM) | MIC 100% (ROB08705, Study LGC295147): 1 µg/mL (≈ 1.35 µM) | MIC 80% (ROB08705, Study LGC296813): ≤0.06 µg/mL | MIC 100% (ROB08705, Study LGC296813): ≤0.06 µg/mL | MIC 80% (ROB08705, Study LGC299544): 0.12 µg/mL (≈ 0.162 µM) | MIC 100% (ROB08705, Study LGC299544): 0.12 µg/mL (≈ 0.162 µM) | MIC 80% (ROB08705, Study LGC301026): ≤0.06 µg/mL | MIC 100% (ROB08705, Study LGC301026): ≤0.06 µg/mL | MIC 80% (ROB08705, Study LGC308175): ≤0.06 µg/mL | MIC 100% (ROB08705, Study LGC308175): ≤0.06 µg/mL | MIC 80% (ROB08705, Study ROC010): 0.12 µg/mL (≈ 0.162 µM) | MIC 100% (ROB08705, Study ROC010): 64 µg/mL (≈ 86.5 µM) | MIC 80% (ROB08705, Study ROC012): ≤0.06 µg/mL | MIC 100% (ROB08705, Study ROC012): 0.12 µg/mL (≈ 0.162 µM) | MIC 80% (ROB08706, Study LGC281440): 0.25 µg/mL (≈ 0.338 µM) | MIC 100% (ROB08706, Study LGC281440): 16 µg/mL (≈ 21.6 µM) | MIC 80% (ROB08706, Study LGC282160): 0.25 µg/mL (≈ 0.338 µM) | MIC 100% (ROB08706, Study LGC282160): 64 µg/mL (≈ 86.5 µM) | MIC 80% (ROB08706, Study LGC284879): 1 µg/mL (≈ 1.35 µM) | MIC 100% (ROB08706, Study LGC284879): >64 µg/mL | MIC 80% (ROB08706, Study LGC285582): 0.25 µg/mL (≈ 0.338 µM) | MIC 100% (ROB08706, Study LGC285582): 64 µg/mL (≈ 86.5 µM) | MIC 80% (ROB08706, Study LGC286210): 0.5 µg/mL (≈ 0.676 µM) | MIC 100% (ROB08706, Study LGC286210): 64 µg/mL (≈ 86.5 µM) | MIC 80% (ROB08706, Study LGC293598): 0.5 µg/mL (≈ 0.676 µM) | MIC 100% (ROB08706, Study LGC293598): >64 µg/mL | MIC 80% (ROB08706, Study LGC294355): 0.5 µg/mL (≈ 0.676 µM) | MIC 100% (ROB08706, Study LGC294355): >64 µg/mL | MIC 80% (ROB08706, Study LGC295147): 0.25 µg/mL (≈ 0.338 µM) | MIC 100% (ROB08706, Study LGC295147): 64 µg/mL (≈ 86.5 µM) | MIC 80% (ROB08706, Study LGC296813): 0.5 µg/mL (≈ 0.676 µM) | MIC 100% (ROB08706, Study LGC296813): 64 µg/mL (≈ 86.5 µM) | MIC 80% (ROB08706, Study LGC299544): 0.5 µg/mL (≈ 0.676 µM) | MIC 100% (ROB08706, Study LGC299544): 64 µg/mL (≈ 86.5 µM) | MIC 80% (ROB08706, Study LGC301026): 0.5 µg/mL (≈ 0.676 µM) | MIC 100% (ROB08706, Study LGC301026): 64 µg/mL (≈ 86.5 µM) | MIC 80% (ROB08706, Study LGC308175): 0.5 µg/mL (≈ 0.676 µM) | MIC 100% (ROB08706, Study LGC308175): 64 µg/mL (≈ 86.5 µM) | MIC 80% (ROB08706, Study ROC010): 0.5 µg/mL (≈ 0.676 µM) | MIC 100% (ROB08706, Study ROC010): 0.5 µg/mL (≈ 0.676 µM) | MIC 80% (ROB08706, Study ROC012): 0.5 µg/mL (≈ 0.676 µM) | MIC 100% (ROB08706, Study ROC012): 32 µg/mL (≈ 43.3 µM) | MIC 80% (ROB08707, Study LGC281440): ≤0.06 µg/mL | MIC 100% (ROB08707, Study LGC281440): 16 µg/mL (≈ 21.6 µM) | MIC 80% (ROB08707, Study LGC282160): 0.12 µg/mL (≈ 0.162 µM) | MIC 100% (ROB08707, Study LGC282160): 64 µg/mL (≈ 86.5 µM) | MIC 80% (ROB08707, Study LGC284879): 0.12 µg/mL (≈ 0.162 µM) | MIC 100% (ROB08707, Study LGC284879): >64 µg/mL | MIC 80% (ROB08707, Study LGC285582): 0.12 µg/mL (≈ 0.162 µM) | MIC 100% (ROB08707, Study LGC285582): 64 µg/mL (≈ 86.5 µM) | MIC 80% (ROB08707, Study LGC286210): 0.12 µg/mL (≈ 0.162 µM) | MIC 100% (ROB08707, Study LGC286210): 64 µg/mL (≈ 86.5 µM) | MIC 80% (ROB08707, Study LGC293598): ≤0.06 µg/mL | MIC 100% (ROB08707, Study LGC293598): >64 µg/mL | MIC 80% (ROB08707, Study LGC294355): 0.12 µg/mL (≈ 0.162 µM) | MIC 100% (ROB08707, Study LGC294355): >64 µg/mL | MIC 80% (ROB08707, Study LGC295147): 0.12 µg/mL (≈ 0.162 µM) | MIC 100% (ROB08707, Study LGC295147): 64 µg/mL (≈ 86.5 µM) | MIC 80% (ROB08707, Study LGC296813): 0.12 µg/mL (≈ 0.162 µM) | MIC 100% (ROB08707, Study LGC296813): 64 µg/mL (≈ 86.5 µM) | MIC 80% (ROB08707, Study LGC299544): 0.12 µg/mL (≈ 0.162 µM) | MIC 100% (ROB08707, Study LGC299544): 64 µg/mL (≈ 86.5 µM) | MIC 80% (ROB08707, Study LGC301026): 0.25 µg/mL (≈ 0.338 µM) | MIC 100% (ROB08707, Study LGC301026): 64 µg/mL (≈ 86.5 µM) | MIC 80% (ROB08707, Study LGC308175): ≤0.06 µg/mL | MIC 100% (ROB08707, Study LGC308175): 64 µg/mL (≈ 86.5 µM) | MIC 80% (ROB08707, Study ROC010): 0.12 µg/mL (≈ 0.162 µM) | MIC 100% (ROB08707, Study ROC010): 0.12 µg/mL (≈ 0.162 µM)
